In patent US5932242A, “Ether lipid-containing pharmaceutical compositions and therapeutic uses thereof” (The Liposome Company, Inc., priority 1996, dated 1999):

Experiments:
[1] = Monolayer mean molecular area per molecule (MMAM) measurement, Langmuir-Blodgett mini-trough; assay type: physicochemical; conditions: single-lipid monolayer, 23° C., 10 mM HEPES, 150 mM NaCl, pH 7.2, extrapolated to zero surface pressure
Excerpt: A measure of the amount of space occupied by a lipid molecule is the mean area ("MMAM") that a molecule of the lipid occupies in a monolayer formed of that lipid. MMAM values for various lipids can readily be determined by ordinarily skilled artisans given the teachings of this invention, for example, as set forth in Example 1 below. MMAM values can be determined by first forming a lipid monolayer on the surface of an aqueous medium contained within a suitable trough, by the drop-wise addition of a lipid solution to the surface of the aqueous medium. […] Surface pressures for the different surface areas are recorded, and area-vs.-pressure curves compiled. MMAM values are obtained from these curves by extrapolating the steepest portion of the curve to a lipid's surface area at zero pressure.
The mean area occupied by a lipid molecule in a monolayer formed by a combination of cone-shaped and inverted cone-shaped lipids could be calculated according to the equation A0 =X^1 ·A^1 +X^2 ·A^2 (see Ali et al., the contents of which are incorporated herein by reference), wherein "A0 " is the MMAM expected of the lipids in the two component system, X^1 and X^2 are the relative mole percentages of the lipids in the combination, and A^1 and A^2 are the measured MMAM values of the individual lipids. Accordingly, the combination of lipids in a two-component monolayer would be expected to result in a mean molecular area per lipid molecule ("MMAMexpected ") reflective of the relative proportions in which each of the constituent lipids is present in the combination. That is, calculated in accordance with the above equation, the MMAM value expected of the lipids would be additive.
The mean molecular area per molecule of formulations containing the ether lipid ET-18-OCH3 was determined using a Langmuir-Blodgett mini-trough equipped with a dual barrier mechanism and a Wilhelmy balance, all obtained from KSV Instruments (Trumbull, Conn.). ET-18-OCH3 formulations were prepared from lipid powders that were dissolved in a solvent system of hexane:ethanol 9:1. Single lipid solutions and mixtures were made to contain an overall lipid concentration of approximately 1.5 mM which was quantitated precisely by phosphate (Chen et al., 1956) and cholesterol assays (Rudel & Morris, 1973). Monolayers were formed by dropwise addition of sample on to the aqueous surface (10 mM HEPES, 150 mM NaCl buffer, pH 7.2) at the center of the trough. Sample was added until the surface pressure just started to rise above zero, at which time the exact volume of sample added was recorded. After waiting three minutes for solvent evaporation and monolayer stabilization, the surface area of the monolayer was reduced at a rate of 15 cm^2 /min, and surface pressure was recorded. The solution level was maintained 1 mm below the top edge of the trough to avoid leakage; contact was maintained with the barriers (composed of Delrin) due to their hydrophilic nature.
Pressure vs. area curves were compiled from data obtained as described above (see FIGS. 1 and 2), and MMAM values were determined by extrapolating the steepest portion of the curve to the value at zero surface pressure. […] All experiments were done at 23° C. […] MMAMs (A0) were determined for each lipid by extrapolation of the steepest portion of the curves to the value at zero surface pressure; and are as follows: ET-18-OCH3 : 72.8 Å^2; CHOL: 44.8 Å^2; DOPE: 82.3 Å^2; POPC: 82.0 Å^2; and, DOPC: 82.0 Å^2.

[2] = art knowledge; cited from earlier work
[3] = Hemolysis of washed human red blood cells (H50); assay type: cell-based; conditions: human, red blood cells
Experimental: (§1) The hemolytic activity of ET-18-OCH3 /CHOL, DOPE, POPC or DOPC liposomes, prepared as described below in Example 2, have also been examined, as described hereinbelow in Example 3. Results, presented hereinbelow in FIG. 3, are in the form of the ET-18-OCH3 concentration in the various liposomes required to achieve hemolysis of 50% of the red blood cells present in a sample (H50).
(§2) […] All liposomes were extruded, in order to assure uniform size distribution.
(§3) Hemolysis was assessed as previously described (Perkins et al., 1992). Briefly, each sample was serially diluted with buffer solution and 0.3 ml of each diluted solution was mixed with 0.3 ml of washed human red blood cells [4% in PBS (v/v)]. For controls, 0.3 ml of the red blood cell suspension was mixed with either 0.3 ml of buffer solution (negative hemolysis control) or 0.3 ml of distilled water (positive hemolysis control). Samples and standards were placed in a 37° C. incubator and agitated for 20 hours. Tubes were centrifuged at low speed (2000 g) for 10 minutes to pellet RBCs. Two hundred μl of the supernatant was removed and mixed with 1 ml of water. Hemolysis was quantitated by absorbance at 550 nm using a Shimadzu 2101 UV-Vis Scanning Spectrophotometer (Shimadzu Corp., Kyoto, Japan). One hundred percent hemolysis was defined as the maximum amount of hemolysis obtained from free ET-18-OCH3.

human red blood cells = assay: Hemolysis of washed human red blood cells (H50); assay type: cell-based; conditions: concluded from hemolysis of 60 mole % ET-18-OCH3 /cholesterol SUVs
Experimental: as §1, §2, §3

Structure (SMILES)	MMAM (A0) of individual lipid [1] [Å^2]	packing parameter [2]	HC50 at 20 h [3] [µM]	Ability to form stable liposome structures (human red blood cells)
CCCCCCCC/C=C\CCCCCCCC(=O)OCC(COP(=O)(O)OCCN)OC(=O)CCCCCCC/C=C\CCCCCCCC (stereo not drawn) [DOPE, dioleoyl phosphatidylethanolamine]	82.3	1.2-1.3		
CCCCCCCC/C=C\CCCCCCCC(=O)OCC(COP(=O)([O-])OCC[N+](C)(C)C)OC(=O)CCCCCCC/C=C\CCCCCCCC (stereo not drawn) [DOPC, dioleoyl phosphatidylcholine]	82.0			
CCCCCCCCCCCCCCCCCCOC[C@H](COP(=O)([O-])OCC[N+](C)(C)C)OC [ET-18-OCH3, 1-O-octadecyl-2-O-methyl-sn-3-phosphorylcholine]	72.8		16	does not form stable liposome structures above a 1:1 stoichiometry
CCCCCCCC/C=C\CCCCCCCC(=O)OC(COC(=O)CCCCCCCCCCCCCCC)COP(=O)([O-])OCC[N+](C)(C)C (stereo not drawn) [POPC, palmitoyloleoyl phosphatidylcholine]	82.0			
CC(C)CCC[C@@H](C)[C@H]1CC[C@H]2[C@@H]3CC=C4C[C@@H](O)CC[C@]4(C)[C@H]3CC[C@]12C [CHOL, cholesterol]	44.8	1.2-1.3		
